In ChEMBL document CHEMBL4390688, “Accelerating the discovery of DGAT1 inhibitors through the application of parallel medicinal chemistry (PMC)” (Bioorg Med Chem Lett, 2019):

Key:
Mus musculus [1] = assay: Reduction in lipid excursion in mouse at 3 mg/kg, po administered as single dose measured after 18 hrs by lipid tolerance test relative to control; format: functional; set-up: scale not given: the % may be the effect or the level left
[2] = biological target: T1, Sterol O-acyltransferase 1 (Homo sapiens, UniProt P35610)
T1 sequence (P35610 whole entry): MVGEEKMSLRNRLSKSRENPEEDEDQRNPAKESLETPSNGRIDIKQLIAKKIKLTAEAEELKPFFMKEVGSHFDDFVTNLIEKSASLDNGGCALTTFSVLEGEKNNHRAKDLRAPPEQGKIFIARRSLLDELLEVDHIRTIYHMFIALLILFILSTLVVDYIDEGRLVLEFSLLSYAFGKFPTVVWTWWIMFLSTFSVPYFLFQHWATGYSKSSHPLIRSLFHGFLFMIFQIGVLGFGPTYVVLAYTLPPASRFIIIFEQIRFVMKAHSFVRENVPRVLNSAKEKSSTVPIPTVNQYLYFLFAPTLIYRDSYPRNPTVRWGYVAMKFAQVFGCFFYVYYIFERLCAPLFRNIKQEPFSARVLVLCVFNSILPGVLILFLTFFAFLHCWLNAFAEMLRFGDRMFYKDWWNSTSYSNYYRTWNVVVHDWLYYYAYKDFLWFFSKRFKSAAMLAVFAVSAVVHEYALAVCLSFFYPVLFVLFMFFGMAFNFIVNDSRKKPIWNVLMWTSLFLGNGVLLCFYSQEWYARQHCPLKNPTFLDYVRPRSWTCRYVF
Description: Inhibition of human ACAT1

[3] = biological target: T2, Diacylglycerol O-acyltransferase 1 (Homo sapiens, UniProt O75907)
T2 sequence (O75907 whole entry): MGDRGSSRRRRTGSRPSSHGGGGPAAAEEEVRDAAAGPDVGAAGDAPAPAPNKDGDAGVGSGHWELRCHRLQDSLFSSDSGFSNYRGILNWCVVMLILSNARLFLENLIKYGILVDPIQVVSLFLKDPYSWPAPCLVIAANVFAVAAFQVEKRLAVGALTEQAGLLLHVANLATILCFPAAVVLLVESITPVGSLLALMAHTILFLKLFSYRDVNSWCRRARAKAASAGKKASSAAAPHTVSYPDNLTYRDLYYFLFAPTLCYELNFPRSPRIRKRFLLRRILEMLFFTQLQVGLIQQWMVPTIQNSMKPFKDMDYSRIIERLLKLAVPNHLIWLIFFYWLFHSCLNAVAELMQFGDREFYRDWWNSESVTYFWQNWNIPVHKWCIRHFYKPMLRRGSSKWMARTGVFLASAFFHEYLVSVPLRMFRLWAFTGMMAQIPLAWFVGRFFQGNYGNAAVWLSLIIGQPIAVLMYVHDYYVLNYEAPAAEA
Description: Inhibition of human DGAT1

Adenosine receptor A2a [4] = biological target: T3, Adenosine receptor A2a (Homo sapiens, UniProt P29274); assay: Activity against human A2AR assessed as inhibition of cAMP accumulation by cAMP functional assay
T3 sequence (P29274 whole entry): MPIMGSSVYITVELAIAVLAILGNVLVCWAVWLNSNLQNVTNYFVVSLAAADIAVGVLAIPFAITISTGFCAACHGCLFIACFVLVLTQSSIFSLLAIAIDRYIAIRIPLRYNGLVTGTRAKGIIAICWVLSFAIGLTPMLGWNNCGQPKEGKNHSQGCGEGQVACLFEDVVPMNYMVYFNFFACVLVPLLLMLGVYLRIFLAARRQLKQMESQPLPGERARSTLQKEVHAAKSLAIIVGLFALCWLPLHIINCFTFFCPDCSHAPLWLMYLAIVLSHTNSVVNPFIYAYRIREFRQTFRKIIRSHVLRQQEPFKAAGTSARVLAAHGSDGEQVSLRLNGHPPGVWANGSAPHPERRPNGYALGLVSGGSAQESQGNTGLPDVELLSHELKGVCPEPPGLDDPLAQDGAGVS

Adenosine receptor A2a [5] = biological target: T3, Adenosine receptor A2a; assay: Activity at human Adenosine A2A receptor; format: ADME
[6] = biological target: Voltage-gated inwardly rectifying potassium channel KCNH2 (Homo sapiens, UniProt Q12809); assay: Inhibition of human ERG
Voltage-gated inwardly rectifying potassium channel KCNH2, sequence (Q12809 whole entry): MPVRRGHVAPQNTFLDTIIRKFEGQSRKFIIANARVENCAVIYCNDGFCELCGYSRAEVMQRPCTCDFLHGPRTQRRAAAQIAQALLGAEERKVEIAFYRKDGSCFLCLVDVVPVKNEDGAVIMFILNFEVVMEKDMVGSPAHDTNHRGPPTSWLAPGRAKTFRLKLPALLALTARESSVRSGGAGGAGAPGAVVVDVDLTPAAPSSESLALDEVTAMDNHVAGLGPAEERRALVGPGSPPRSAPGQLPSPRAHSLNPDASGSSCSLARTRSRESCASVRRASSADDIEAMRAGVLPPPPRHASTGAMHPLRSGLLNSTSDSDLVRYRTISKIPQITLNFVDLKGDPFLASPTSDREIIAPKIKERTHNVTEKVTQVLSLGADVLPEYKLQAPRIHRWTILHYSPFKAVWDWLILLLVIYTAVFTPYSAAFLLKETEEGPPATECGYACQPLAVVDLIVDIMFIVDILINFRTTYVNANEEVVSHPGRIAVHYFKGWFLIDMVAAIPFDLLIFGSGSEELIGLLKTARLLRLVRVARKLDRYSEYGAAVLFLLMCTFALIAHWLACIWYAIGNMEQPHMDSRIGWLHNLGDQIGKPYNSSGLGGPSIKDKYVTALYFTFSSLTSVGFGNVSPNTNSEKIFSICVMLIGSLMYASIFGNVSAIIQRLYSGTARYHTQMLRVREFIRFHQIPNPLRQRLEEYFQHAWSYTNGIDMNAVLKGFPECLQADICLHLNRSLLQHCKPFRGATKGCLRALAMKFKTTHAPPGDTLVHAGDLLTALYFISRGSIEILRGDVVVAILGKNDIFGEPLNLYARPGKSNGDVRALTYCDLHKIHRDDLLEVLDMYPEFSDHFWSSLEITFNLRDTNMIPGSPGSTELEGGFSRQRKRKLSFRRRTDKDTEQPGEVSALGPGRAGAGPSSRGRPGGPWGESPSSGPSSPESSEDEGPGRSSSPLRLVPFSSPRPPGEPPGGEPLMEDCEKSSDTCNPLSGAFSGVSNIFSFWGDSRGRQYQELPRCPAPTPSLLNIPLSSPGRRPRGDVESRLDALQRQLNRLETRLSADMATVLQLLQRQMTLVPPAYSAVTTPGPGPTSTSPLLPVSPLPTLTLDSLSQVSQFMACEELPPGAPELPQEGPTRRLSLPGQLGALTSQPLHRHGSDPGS

[7] = biological target: T4, Diacylglycerol O-acyltransferase 1 (Mus musculus, UniProt Q9Z2A7)
T4 sequence (Q9Z2A7 whole entry): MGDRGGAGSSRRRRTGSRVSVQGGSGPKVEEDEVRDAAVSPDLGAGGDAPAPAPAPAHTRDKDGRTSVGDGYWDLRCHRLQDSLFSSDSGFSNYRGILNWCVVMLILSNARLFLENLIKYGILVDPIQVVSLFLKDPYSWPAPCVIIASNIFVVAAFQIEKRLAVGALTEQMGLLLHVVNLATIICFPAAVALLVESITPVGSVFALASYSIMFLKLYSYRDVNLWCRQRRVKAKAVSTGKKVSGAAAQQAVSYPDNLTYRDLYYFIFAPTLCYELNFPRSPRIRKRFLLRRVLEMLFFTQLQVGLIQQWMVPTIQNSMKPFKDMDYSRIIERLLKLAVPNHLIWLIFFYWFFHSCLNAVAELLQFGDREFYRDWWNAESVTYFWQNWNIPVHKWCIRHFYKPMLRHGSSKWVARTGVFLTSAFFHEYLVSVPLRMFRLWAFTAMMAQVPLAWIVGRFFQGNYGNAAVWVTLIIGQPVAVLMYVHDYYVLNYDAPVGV
Description: Inhibition of mouse DGAT1

[8] = Distribution coefficient, log D of compound; format: physicochemical; settings: octanol/water
Mus musculus [9] = assay: Reduction in lipid excursion in mouse at 10 mg/kg, po QD measured at 18 hrs post dose by lipid tolerance test relative to control; format: functional; set-up: scale not given: the % may be the effect or the level left
Homo sapiens = species on record: Homo sapiens; assay: Ratio of IC50 for human ACAT1 to IC50 for human DGAT1
[10] = Solubility of the compound at pH 7; format: physicochemical; settings: buffer
[11] = Mutagenicity in Salmonella typhimurium […] by Ames test; format: toxicity; settings: salmonella enterica subsp. enterica serovar typhimurium
[12] = Mutagenicity in Salmonella typhimurium TA98 by Ames test; format: toxicity; settings: salmonella enterica subsp. enterica serovar typhimurium
[13] = Mutagenicity in Salmonella typhimurium TA100 by Ames test; format: toxicity; settings: salmonella enterica subsp. enterica serovar typhimurium

Compound	IC50 [2] [µM]	IC50 [3] [µM]	IC50 (Adenosine receptor A2a [4]) [µM]	Activity (Adenosine receptor A2a [5])	IC50 [7] [µM]	logD [8]	Ratio IC50 (Homo sapiens)	Ki (Adenosine receptor A2a [4]) [µM]	solubility [10] [µM]	Activity (Mus musculus [1]) [%]	Ki [6] [µM]	Activity (Mus musculus [9]) [%]	Activity [11]	Activity [12]	Activity [13]
O=C(O)C[C@H]1CC[C@@H](Oc2ccc(-c3ccc(-c4nc5ccccc5[nH]4)cn3)cn2)CC1	> 2	0.0052	0.45	Active	0.0052					92	26.9				
Cc1ccc2[nH]c(-c3ccc(-c4ccc(O[C@H]5CC[C@@H](CC(=O)O)CC5)nc4)nc3)nc2n1	> 10	0.0308	0.49								> 60				
O=C(O)C[C@H]1CC[C@H](OC2CCN(c3ccc(-c4nc5c(F)cc(F)cc5[nH]4)cn3)CC2)CC1	> 10	0.0041	0.52		0.011					65	4.1				
O=C(O)[C@H]1CC[C@@H](OC2CCN(c3ccc(-c4nc5cc(F)ccc5[nH]4)cn3)CC2)CC1	> 10							> 10							
N#Cc1ccc2[nH]c(-c3ccc(-c4ccc(O[C@H]5CC[C@@H](CC(=O)O)CC5)nc4)nc3)nc2c1	> 10	0.0036	0.43		0.0178					63	2.7				
O=C(O)C1CCC2(CCN(c3ccc(-c4nc5cc(C(F)(F)F)ccc5[nH]4)cn3)CC2)OC1 (racemic)	> 10							> 10							
O=C(O)C[C@H]1CC[C@H](OC2CCN(c3ccc(-c4nc5cc(C(F)(F)F)ccc5[nH]4)cn3)CC2)CC1	> 10	0.002	1.8		0.0046					57	4.9				
O=C(O)c1ccc(Oc2ccc(-c3ccc(-c4nc5cc(Cl)ccc5[nH]4)cn3)cn2)cc1	1.94	0.0013			0.0044	1.49			< 1		1.36				
O=C(O)C[C@H]1CC[C@@H](Oc2ccc(-c3ccc(-c4nc5cc(C(F)(F)F)cnc5[nH]4)cn3)cn2)CC1	> 2	0.007	0.97	Active	0.0095					92	23.4				
COc1ccc2[nH]c(-c3ccc(-c4ccc(O[C@H]5CC[C@@H](CC(=O)O)CC5)nc4)nc3)nc2n1	> 2	0.0116	1.2	Active	0.0098					96	37.7				
O=C(O)C[C@H]1CC[C@H](OC2CCN(c3ccc(-c4nc5ccccc5[nH]4)cn3)CC2)CC1	> 10	0.0152	> 10		0.0421					85	25.7		Toxic	Toxic	Toxic
Oc1ccc(-c2ccc(-c3nc4cc(C(F)(F)F)ccc4[nH]3)cc2)cn1	3.78	0.0064					> 500				2.25				
O=C(O)C1(CNc2ccc(-c3ccc(-c4nc5cc(Cl)ccc5[nH]4)cn3)cn2)CC1	> 10	0.0029			0.02	1.33					12.1	0			
O=C(O)C[C@H]1CC[C@H](OC2CCN(c3ccc(-c4nc5c(F)cccc5[nH]4)cn3)CC2)CC1	> 10	0.008	0.91		0.0214					92	10.7				

Continued, in another order:

IC50 [2] [µM]	IC50 [3] [µM]	IC50 (Adenosine receptor A2a [4]) [µM]	Activity (Adenosine receptor A2a [5])	IC50 [7] [µM]	logD [8]	Ratio IC50 (Homo sapiens)	Ki (Adenosine receptor A2a [4]) [µM]	solubility [10] [µM]	Compound	Activity (Mus musculus [1]) [%]	Ki [6] [µM]	Activity (Mus musculus [9]) [%]	Activity [11]	Activity [12]	Activity [13]
> 10	0.0025			0.02	1.45	> 4000			CC1(C(=O)O)CCN(c2ccc(-c3ccc(-c4nc5cc(Cl)ccc5[nH]4)cn3)cn2)CC1		4.8	96			
> 10	0.0031	0.68		0.022					O=C(O)C[C@H]1CC[C@H](OC2CCN(c3ccc(-c4nc5cc(Cl)ccc5[nH]4)cn3)CC2)CC1		4.5				
> 2	0.0024	0.42		0.0032					O=C(O)C[C@H]1CC[C@@H](Oc2ccc(-c3ccc(-c4nc5cc(F)ccc5[nH]4)cn3)cn2)CC1	109	8.2				
1.72	0.0017			0.005	1.24				O=C(O)C1(COc2ccc(-c3ccc(-c4nc5cc(Cl)ccc5[nH]4)cn3)cn2)CCC1		20	89			
> 2	0.0045			0.033	1.56				CC1(C)CN(c2ccc(-c3ccc(-c4nc5cc(Cl)ccc5[nH]4)cn3)cn2)CCC1CC(=O)O (racemic)		1.74	66			
> 2	0.0036			0.03	1.19				O=C(O)C1CC1COc1ccc(-c2ccc(-c3nc4cc(Cl)ccc4[nH]3)cn2)cn1 (racemic)		19	91			
> 2	0.0102			0.108	1.48				O=C(O)CC1CCN(c2ccc(-c3ccc(-c4nc5cc(Cl)ccc5[nH]4)cn3)cn2)CC1		5.22	62			
